The supplement of paper PMC4858399
Where a name gives a salt, the structure may show the parent alone.

Columns and labels:
Settings in all cases: exposure time 48 h
[1] = system: Caenorhabditis elegans N2; test: AC50 for larval growth inhibition (Hill fit); higher = less potent
Method in brief: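 Synchronised C. elegans N2 L1 larvae (50 per well, 96-well plates) were grown for 48 h at 20°C in K-medium with killed OP50, 1% DMSO and 0.5–200 µM chemical. The COPAS Biosort measured each worm's size as extinction, which was log-transformed and averaged per well. AC50 came from a constrained Hill fit by weighted genetic-algorithm regression on wells with at least 10 worms. Out-of-range values are censored.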

[2] = system: Caenorhabditis elegans N2; test: lowest effective concentration for larval growth inhibition (size below effect threshold); higher = less potent
Method in brief: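 Each well of a 96-well plate received 50 C. elegans N2 L1 larvae, which grew for 48 h at 20°C in K-medium containing killed bacteria, 1% DMSO and the chemical at 0.5, 1, 5, 10, 50, 100 or 200 µM. A Biosort recorded the extinction of every worm as its size, and these readings were log-transformed and averaged per well. The lowest effective concentration is defined as the first dose at which the plate-adjusted mean size falls below the threshold and stays below it at all higher doses; that threshold is 5.665.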

[3] = system: Caenorhabditis elegans N2; test: mean nematode size ln(EXT) after 48 h, plate-adjusted (DMSO control set to 6) (ln(EXT), control-adjusted); higher = larger nematodes / less growth inhibition
Method in brief: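 C. elegans N2 larvae, synchronised at L1, grew for 48 h at 20°C in K-medium with killed OP50, 1% DMSO and 0.5–200 µM chemical. Mean size per well was derived from natural-logged Biosort extinction after a growth model removed debris. Adjustment across plates involved subtracting the vehicle control mean and adding 6.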

| SMILES | AC50 for larval growth inhibition [1] | lowest effective concentration [2] | mean nematode size ln(EXT) (ln) ([3]; 0.5 µM) | mean nematode size ln(EXT) (ln) ([3]; 1 µM) | mean nematode size ln(EXT) (ln) ([3]; 5 µM) | mean nematode size ln(EXT) (ln) ([3]; 10 µM) | mean nematode size ln(EXT) (ln) ([3]; 50 µM) | mean nematode size ln(EXT) (ln) ([3]; 100 µM) | mean nematode size ln(EXT) (ln) ([3]; 200 µM) |
| --- | --- | --- | --- | --- | --- | --- | --- | --- | --- |
| On1ccccc1=S [Sodium (2-pyridylthio)-N-oxide] | > 200 µM | 200 µM | 5.88 | 5.86 | 5.84 | 5.87 | 5.74 | 5.74 | 5.51 |
| COC(=O)c1ccc(C(=O)OC)cc1 [Dimethyl terephthalate] | > 200 µM | 200 µM | 5.9 | 5.9 | 5.87 | 5.83 | 5.81 | 5.83 | 5.09 |
| CCCCOC(=O)[C@H](C)Oc1ccc(Oc2ccc(C#N)cc2F)cc1 [Cyhalofop-butyl] | 107 µM | 200 µM | 6 | 6 | 6.12 | 6.17 | 6.08 | 5.91 | 5.22 |
| COC(=O)CCCCC(=O)OC [Dimethyl adipate] | > 200 µM | 200 µM | 5.82 | 5.88 | 5.81 | 5.79 | 5.85 | 5.85 | 5.65 |
| CCOP(=S)(OCC)OC(Cl)C(Cl)(Cl)Cl (stereo not drawn) [Chlorethoxyfos] | 13.2 µM | 50 µM | 5.75 | 5.76 | 5.76 | 5.7 | 4.54 | 5.09 | 3.42 |
| CCOC(=O)C(Cl)Cc1cc(-n2nc(C)n(C(F)F)c2=O)c(F)cc1Cl (stereo not drawn) [Carfentrazone-ethyl] | > 200 µM | 200 µM | 6.04 | 5.98 | 6.04 | 6.04 | 5.93 | 5.98 | 5.59 |
| CCCSP(=O)(OCC)SCCC [Ethoprop] | 76.3 µM | 10 µM | 5.83 | 5.78 | 5.68 | 5.55 | 4.81 | 4.35 | 4.19 |
| O=C(O)CN(CC(=O)O)CC(=O)O [Nitrilotriacetic acid] | > 200 µM | 200 µM | 5.78 | 5.83 | 5.87 | 5.88 | 5.91 | 5.88 | 5.21 |
| c1ccc2c(c1)Cc1ccccc1-2 [Diphenylenemethane] | 39.2 µM | 50 µM | 6.07 | 6.06 | 6.03 | 5.92 | 4.4 | 4.02 | 3.5 |
| CCC(=O)Nc1ccc(Cl)c(Cl)c1 [Propanil] | > 200 µM | 200 µM | 5.8 | 5.75 | 5.7 | 5.93 | 6 | 5.96 | 5.04 |
| Nc1ccc2ccccc2c1 [2-Naphthylamine] | > 200 µM | 200 µM | 6 | 5.76 | 5.94 | 5.72 | 5.71 | 5.89 | 5.51 |
| Cc1ccc(C)c(O)c1C [2,3,6-Trimethylphenol] | > 200 µM | 200 µM | 5.88 | 6.02 | 5.94 | 5.93 | 5.93 | 5.9 | 5.65 |
| CCCCOC(=O)C(C)Oc1ccc(Oc2ccc(C(F)(F)F)cn2)cc1 (stereo not drawn) [Fluazifop-butyl] | 191 µM | 100 µM | 6.21 | 6.17 | 6.11 | 6.18 | 5.87 | 5.5 | 4.66 |
| N#CC(Br)(Br)C(N)=O [2,2-Dibromo-3-nitrilopropionamide] | > 200 µM | 200 µM | 6.09 | 6.03 | 6.04 | 6.07 | 5.96 | 5.94 | 5.57 |
| C=C(C)CN(CC)c1c([N+](=O)[O-])cc(C(F)(F)F)cc1[N+](=O)[O-] [Ethalfluralin] | 141 µM | 200 µM | 5.89 | 6.05 | 5.94 | 5.8 | 6.1 | 5.98 | 4.85 |
| CCOP(=S)(Oc1ccc([N+](=O)[O-])cc1)c1ccccc1 (stereo not drawn) [O-Ethyl O-(p-nitrophenyl) phenylphosphonothioate] | 6.09 µM | ≤ 0.5 µM | 5.28 | 5.07 | 4.53 | 4.38 | 4.13 | 4.01 | 3.39 |
| CCCCCCOC(=O)c1ccccc1C(=O)OCCCCCC [Dihexyl phthalate] | > 200 µM | 200 µM | 5.8 | 5.83 | 5.89 | 5.83 | 5.81 | 5.73 | 5.5 |
| O=C(O)C(F)(F)C(F)(F)C(F)(F)C(F)(F)C(F)(F)C(F)(F)C(F)(F)F [Pentadecafluorooctanoic acid ammonium salt] | > 200 µM | 200 µM | 5.88 | 5.86 | 5.85 | 5.84 | 5.83 | 5.68 | 5.43 |
| Nc1cc(Cl)cc(C(=O)O)c1Cl [Chloramben] | > 200 µM | 50 µM | 5.87 | 5.9 | 5.88 | 5.9 | 5.46 | 5.58 | 5.3 |
| CC(C)N1C(=O)c2ccccc2NS1(=O)=O [Bentazone] | > 200 µM | 200 µM | 6.05 | 5.93 | 5.96 | 6 | 6.01 | 6.05 | 5.55 |
| CC(C)(O)c1coc(S(=O)(=O)NC(=O)Nc2c3c(cc4c2CCC4)CCC3)c1 | 111 µM | 200 µM | 5.93 | 6.15 | 6.24 | 6.2 | 6.09 | 5.98 | 5.63 |
| CC(C)[C@H](C(=O)O[C@H](C#N)c1cccc(Oc2ccccc2)c1)c1ccc(Cl)cc1 [Esfenvalerate] | > 200 µM | 200 µM | 5.76 | 5.83 | 5.9 | 5.73 | 5.74 | 5.76 | 5.64 |
| C=C(C)C(=O)OCCC(F)(F)C(F)(F)C(F)(F)C(F)(F)C(F)(F)C(F)(F)F [3,3,4,4,5,5,6,6,7,7,8,8,8-Tridecafluorooctyl methacrylate] | 23 µM | 50 µM | 5.88 | 5.84 | 5.84 | 5.73 | 5.6 | 5.45 | 5.57 |

| SMILES | AC50 for larval growth inhibition [1] | lowest effective concentration [2] | mean nematode size ln(EXT) (ln) ([3]; 0.5 µM) | mean nematode size ln(EXT) (ln) ([3]; 1 µM) | mean nematode size ln(EXT) (ln) ([3]; 5 µM) | mean nematode size ln(EXT) (ln) ([3]; 10 µM) | mean nematode size ln(EXT) (ln) ([3]; 50 µM) | mean nematode size ln(EXT) (ln) ([3]; 100 µM) | mean nematode size ln(EXT) (ln) ([3]; 200 µM) |
| --- | --- | --- | --- | --- | --- | --- | --- | --- | --- |
| CCO/N=C(\CC)C1=C(O)CC(c2c(C)cc(C)cc2C)CC1=O (stereo not drawn) [Tralkoxydim] | 109 µM | 200 µM | 5.85 | 5.93 | 5.9 | 6.14 | 6.08 | 5.93 | 5.48 |
| NC(=O)N1C(=O)C(C(=O)c2cc(Cl)cs2)c2cc(F)c(Cl)cc21 (stereo not drawn) | 1.41 µM | ≤ 0.5 µM | 5.49 | 4.96 | 4.54 | 4.37 | 4.04 | 4.02 |  |
| Cc1nccn1-c1ccc(Sc2cccc(C3(C(N)=O)CCOCC3)c2)cc1 | > 200 µM | 200 µM | 5.74 | 6.03 | 5.84 | 5.88 | 5.86 | 5.81 | 5.48 |
| CCN(CC)C(=O)SCc1ccc(Cl)cc1 [Thiobencarb] | 51.1 µM | 50 µM | 5.97 | 5.98 | 5.97 | 5.95 | 5.44 | 4.48 | 4.48 |
| O=c1[nH]c2ccc([S+]([O-])CCN3CCC(Cc4ccc(F)cc4)CC3)cc2o1 (stereo not drawn) [Besonprodil] | > 200 µM | 200 µM | 5.75 | 6 | 5.87 | 5.9 | 5.87 | 5.82 | 5.31 |
| CCCCCCCCN(C)CCCCCCCC [N-Methyldioctylamine] | 182 µM | 200 µM | 5.78 | 5.86 | 5.87 | 5.75 | 5.78 | 5.83 | 4.13 |
| CCCCC(CC)CN1C(=O)C2C3C=CC(C3)C2C1=O (mixture of isomers) [MGK] | 185 µM | 200 µM | 5.99 | 5.99 | 5.97 | 5.98 | 5.81 | 5.84 | 4.3 |
| O=C(O)c1ccc([N+](=O)[O-])cc1 [4-Nitrobenzoic acid] | > 200 µM | 200 µM | 6 | 5.57 | 5.86 | 5.85 | 5.77 | 5.91 | 5.53 |
| CNC(=O)ON=C(C)SC [Methomyl] | 91.6 µM | 50 µM | 5.94 | 5.95 | 6.08 | 5.93 | 5.19 | 4.65 | 3.39 |
| COc1ccc(C(=CC(=O)N2CCOCC2)c2ccc(Cl)cc2)cc1OC [Dimethomorph] | 117 µM | 100 µM | 6 | 5.98 | 6.05 | 6.03 | 5.92 | 5.54 | 4.95 |
| O=[N+]([O-])c1ccc(O)c([N+](=O)[O-])c1 [2,4-Dinitrophenol] | > 200 µM | 200 µM | 5.82 | 5.79 | 5.78 | 5.83 | 5.83 | 5.75 | 5.52 |
| CCCCOC(=O)c1ccccc1 [Butyl benzoate] | 100 µM | 200 µM | 6 | 5.94 | 5.85 | 5.83 | 6 | 5.76 | 5.53 |
| OCCO [Ethylene glycol] | > 200 µM | 100 µM | 5.79 | 5.77 | 5.77 | 5.78 | 5.72 | 5.63 | 5.65 |
| COC(=O)c1ccccc1N [Methyl 2-aminobenzoate] | > 200 µM | 200 µM | 5.88 | 5.87 | 5.91 | 5.88 | 5.8 | 5.7 | 5.64 |
| CCN(CC)c1ccccc1 [N,N-Diethyl aniline] | 186 µM | 200 µM | 6.08 | 6.09 | 5.9 | 6 | 5.98 | 6.05 | 4.83 |
| O=C(Nc1ccc([N+](=O)[O-])cc1Cl)c1cc(Cl)ccc1O [Niclosamide] | 98.6 µM | 200 µM | 5.85 | 5.9 | 5.86 | 6.1 | 6.02 | 5.74 | 5.59 |
| CC(C)CCCCCCCOC(=O)c1ccccc1C(=O)OCCCCCCCC(C)C [Diisodecyl phthalate] | > 200 µM | 200 µM | 5.44 | 5.55 | 5.58 | 5.72 | 5.68 | 5.67 | 5.66 |
| O=S(=O)(O)C(F)(F)C(F)(F)C(F)(F)C(F)(F)C(F)(F)C(F)(F)F [Potassium perfluorohexanesulfonate] | > 200 µM | 100 µM | 5.85 | 5.87 | 5.87 | 5.85 | 5.76 | 5.55 | 5.31 |
| S=C([S-])NCCNC(=S)[S-].[Mn+2] [Maneb] | > 200 µM | 200 µM | 5.91 | 5.98 | 6.05 | 5.98 | 5.9 | 5.83 | 5.52 |
| COP(=S)(OC)Oc1ccc([N+](=O)[O-])cc1 [Parathion-methyl] | 15.1 µM | 5 µM | 5.71 | 5.8 | 5.52 | 5.25 | 3.72 | 3.66 | 3.7 |
| CC1(C)C(C(=O)OC(C#N)c2cccc(Oc3ccccc3)c2)C1(C)C (stereo not drawn) [Fenpropathrin] | > 200 µM | 50 µM | 5.91 | 5.81 | 5.77 | 5.93 | 5.22 | 5.22 | 4.68 |
| CCOP(=S)(OCC)SCCSCC [Disulfoton] | > 200 µM | 200 µM | 6.1 | 6.13 | 5.9 | 6.03 | 5.93 | 5.72 | 5.04 |
| CC(C)(C)C(O)C(Oc1ccc(Cl)cc1)n1cncn1 (stereo not drawn) [Triadimenol] | > 200 µM | 200 µM | 5.84 | 5.88 | 5.9 | 5.93 | 5.79 | 5.95 | 5.59 |
